We go through 15 compounds from patent US20240360179A1, “STAPLED PEPTIDES AND METHODS THEREOF” (FOG PHARMACEUTICALS, INC., priority 2021, published 2024).

Like-named read-outs stand apart in the source and are kept apart here. Bounds are passed on as bounds.

The subject of the experiment is COLO320DM cells. Kind of experiment: COLO320DM proliferation assay (CellTiter-Glo). It is filed as cell-based, human. On the procedure: COLO320DM proliferation assay IC50: In some embodiments, inhibition of cell proliferation by provided technologies were assessed using cell lines related to or from certain conditions, disorders or diseases. In some embodiments, cell proliferation was assessed in COLO320DM cells. In some embodiments, assessment was performed using the following procedure: On Day 1, cultured COLO320DM cells in a T75 flask were trypsinized in 3 mL of 0.250% trypsin/EDTA for 5 min and quenched with 10 mL RPMI-1640+4% HI FBS assay media. The cells were spun down at 1200 rpm for 5 min, the cell pellet collected and re-suspended at 5000 cells/mL in assay media. Using a Combi liquid handler, cells were dispensed (50 uL, 250 cells/well) into three 384 well plates. Plates were incubated at 37° C., 5% CO2 for 18-22 h. On day 2, compounds were added. A liquid handling system was used to prepare the compound dilution and dispense compound into assay plates. The compounds were serially diluted 1/2 in 90% DMSO to create a 7 point dose curve. From compound plate, 100 nL of compound were dispensed directly into wells of the assay plates to create a dose curve starting at 20 uM and ending at 313 nM. Assay plates were incubated at 37° C., 5% CO2 for 96 h. On day 6, assay plates were removed from the incubator and allowed to sit at room temperature for 30 min. Using a liquid handler, 20 uL of CellTiter Glo reagent was added to each well. The assay plates were shaken for 2 min and allowed to sit on the bench for 10-15 minutes. The assay plates were read using the CellTiter Glo protocol on a GloMax microplate reader, and the data analyzed using GraphPad Prism. Activities of various agents, including various stapled peptides in Table E2, were confirmed.
In some embodiments, an assessment was performed as follows. On day 0, cells were seeded in cell culture media (RPMI1640, 4% FBS) in a 96-well plate at desired density, typically at 1000 cells/well. On day 1, 10 mM agent stock solution (in DMSO) was first serially diluted into DMSO at 1:2 ratio, followed by diluting with cell culture media at two times of the final concentrations. Finally, agent-containing media were introduced to cell culture wells already having the same volume of cell culture media. Cells were incubated with agents for desired days before lysed for CellTiter-Glo® Luminescent Cell Viability Assay according to the manufacture instruction (Promega, G7570). Luminescent signal was obtained from a microplate reader (GloMax, Promega). Cell viability data was expressed as % relative to DMSO control wells.
Proliferation Assay. In some embodiments, various proliferation assays are utilized to characterize or assess provided technologies. In some embodiments, on day 0, cells were seeded in cell culture media in a 96-well plate at desired density, typically at 1000 cells/well. On day 1, 10 mM compound stock solution was first serially diluted into DMSO, followed by diluting with cell culture media at two times of the final concentrations. Finally, compound-containing media were introduced to cell culture wells already having the same volume of cell culture media. Cells were incubated with compounds for desired days before lysed for CTG according to the manufacture instruction (G7570, Promega). Luminescent signal was obtained from a microplate reader (GloMax, Promega).

[1] abbreviates: read-out: COLO320DM Proliferation Abs IC50.
Where [2] appears, read: absolute IC50, read-out: COLO320DM Proliferation Abs IC50.

Take “2IAPAc-PL3-Asp-Npg-B5-Asp-3COOHF-Aib-Ala-Phe-Lys*3-PyrS2-3Thi-BztA-GlnR*3-Ala-NH2 [I-1064]”: the IC50 under setting [1] was above 20 µM.
In the case of “124TriAc-PL3-Asp-Npg-B5-Asp-3COOHF-Aib-Ala-Phe-Lys*3-PyrS2-3Thi-BztA-GlnR*3-Ala-NH2 [I-1075]”, the IC50 under setting [1] is above 20 µM.
On the same count and under the same terms, the value for `CC(=O)N1CCC[C@@]1(C)C(=O)N[C@@H](CC(=O)O)C(=O)N[C@H](C(=O)N[C@]1(C)CCCCCCCCOC(=O)N2CC[C@@]3(C2)NC(=O)[C@H](CCCCNC(=O)CC[C@@H](C(=O)N[C@@H](C)C(N)=O)NC(=O)[C@H](Cc2csc4ccccc24)NC(=O)[C@H](Cc2ccsc2)NC3=O)NC(=O)[C@H](Cc2ccccc2)NC(=O)[C@H](C)NC(=O)C(C)(C)NC(=O)[C@H](Cc2cccc(C(=O)O)c2)NC(=O)[C@H](CC(=O)O)NC1=O)C(C)C` (relative stereo) [I-237, Ac-MePro-Asp-Val-R5-Asp-3COOHF-Aib-Ala-Phe-Lys*3-PyrS2-3Thi-BztA-GlnR*3-Ala-NH2] was above 20 µM; that for `CCCC[C@@H]1NC(=O)[C@H](CC(=O)O)NC(=O)[C@]2(CC=CCCCC3(CCCC=CCCCOC(=O)N4CC[C@@]5(C4)NC(=O)[C@H](CCCCNC(=O)CC[C@@H](C(=O)N[C@@H](C)C(N)=O)NC(=O)[C@H](Cc4csc6ccccc46)NC(=O)[C@H](Cc4ccsc4)NC5=O)NC(=O)[C@H](Cc4ccccc4)NC(=O)[C@H](C)NC(=O)C(C)(C)NC(=O)[C@H](Cc4cccc(C(=O)O)c4)NC(=O)[C@H](CC(=O)O)NC3=O)NC1=O)CCCN2C(C)=O` (relative stereo) [I-245, Ac-PL3-Asp-nLeu-B5-Asp-3COOHF-Aib-Ala-Phe-Lys*3-PyrS2-3Thi-BztA-GlnR*3-Ala-NH2] was at most 10 µM.
Regarding `CC(=O)N1CCC[C@]12CC=CCCCC1(CCCC=CCCCOC(=O)N3CC[C@@]4(C3)NC(=O)[C@H](CCCCNC(=O)CC[C@@H](C(=O)N[C@@H](C)C(N)=O)NC(=O)[C@H](Cc3csc5ccccc35)NC(=O)[C@H](Cc3ccccc3C)NC4=O)NC(=O)[C@H](Cc3ccccc3)NC(=O)[C@H](C)NC(=O)C(C)(C)NC(=O)[C@H](Cc3cccc(C(=O)O)c3)NC(=O)[C@H](CC(=O)O)NC1=O)NC(=O)[C@H](CC(C)(C)C)NC(=O)[C@H](CC(=O)O)NC2=O` (relative stereo) [I-294, Ac-PL3-Asp-Npg-B5-Asp-3COOHF-Aib-Ala-Phe-Lys*3-PyrS2-2MeF-BztA-GlnR*3-Ala-NH2], under setting [1], the IC50 is at most 10 µM.
Still for that read-out and setting: the value for `CC(=O)N1CCC[C@]12CC=CCCCC1(CCCC=CCCCOC(=O)N3CC[C@@]4(C3)NC(=O)[C@H](CCCCNC(=O)CC[C@@H](C(=O)N[C@@H](C)C(N)=O)NC(=O)[C@H](Cc3csc5ccccc35)NC(=O)[C@H](Cc3ccccn3)NC4=O)NC(=O)[C@H](Cc3ccccc3)NC(=O)[C@H](C)NC(=O)C(C)(C)NC(=O)[C@H](Cc3cccc(C(=O)O)c3)NC(=O)[C@H](CC(=O)O)NC1=O)NC(=O)[C@H](CC(C)(C)C)NC(=O)[C@H](CC(=O)O)NC2=O` (relative stereo) [I-299, Ac-PL3-Asp-Npg-B5-Asp-3COOHF-Aib-Ala-Phe-Lys*3-PyrS2-2PyrA-BztA-GlnR*3-Ala-NH2] was 10 to 20 µM; that for `CC(=O)N1CCC[C@]12CC=CCCCC1(CCCC=CCCCOC(=O)N3CC[C@@]4(C3)NC(=O)[C@H](CCCCNC(=O)CC[C@@H](C(=O)N[C@@H](C)C(N)=O)NC(=O)[C@H](Cc3csc5ccccc35)NC(=O)[C@H](Cc3cccnc3)NC4=O)NC(=O)[C@H](Cc3ccccc3)NC(=O)[C@H](C)NC(=O)C(C)(C)NC(=O)[C@H](Cc3cccc(C(=O)O)c3)NC(=O)[C@H](CC(=O)O)NC1=O)NC(=O)[C@H](CC(C)(C)C)NC(=O)[C@H](CC(=O)O)NC2=O` (relative stereo) [I-300, Ac-PL3-Asp-Npg-B5-Asp-3COOHF-Aib-Ala-Phe-Lys*3-PyrS2-3PyrA-BztA-GlnR*3-Ala-NH2] was above 20 µM; that for `CC(=O)N1CCC[C@]12CC=CCCCC1(CCCC=CCCCOC(=O)N3CC[C@@]4(C3)NC(=O)[C@H](CCCCNC(=O)CC[C@@H](C(=O)N[C@@H](C)C(N)=O)NC(=O)[C@H](Cc3csc5ccccc35)NC(=O)[C@H](Cc3ccncc3)NC4=O)NC(=O)[C@H](Cc3ccccc3)NC(=O)[C@H](C)NC(=O)C(C)(C)NC(=O)[C@H](Cc3cccc(C(=O)O)c3)NC(=O)[C@H](CC(=O)O)NC1=O)NC(=O)[C@H](CC(C)(C)C)NC(=O)[C@H](CC(=O)O)NC2=O` (relative stereo) [I-301, Ac-PL3-Asp-Npg-B5-Asp-3COOHF-Aib-Ala-Phe-Lys*3-PyrS2-4PyrA-BztA-GlnR*3-Ala-NH2] was above 20 µM.
The same measure, in the same setting: the value for `CC(=O)N1CCC[C@]12CC=CCCCC1(CCCC=CCCCOC(=O)N3CC[C@@]4(C3)NC(=O)[C@H](CCCCNC(=O)CC[C@@H](C(=O)N[C@@H](C)C(N)=O)NC(=O)[C@H](Cc3csc5ccccc35)NC(=O)[C@H](Cc3ccsc3)NC4=O)NC(=O)[C@H](Cc3ccccc3)NC(=O)[C@H](C)NC(=O)C(C)(C)NC(=O)[C@H](Cc3cccc(C(=O)O)c3)NC(=O)[C@H](CC(=O)O)NC1=O)NC(=O)[C@H](C)NC(=O)[C@H](CC(=O)O)NC2=O` (relative stereo) [I-304, Ac-PL3-Asp-Ala-B5-Asp-3COOHF-Aib-Ala-Phe-Lys*3-PyrS2-3Thi-BztA-GlnR*3-Ala-NH2] was at most 10 µM.
Take `CC(=O)N1CCC[C@]12CC=CCCCC1(CCCC=CCCCOC(=O)N3CC[C@@]4(C3)NC(=O)[C@H](CCCCNC(=O)CC[C@@H](C(=O)N[C@@H](C)C(N)=O)NC(=O)[C@H](Cc3csc5ccccc35)NC(=O)[C@H](Cc3ccsc3)NC4=O)NC(=O)[C@H](Cc3ccccc3)NC(=O)[C@H](C)NC(=O)C(C)(C)NC(=O)[C@H](Cc3cccc(C(=O)O)c3)NC(=O)[C@H](CC(=O)O)NC1=O)NC(=O)[C@H](CCCN1CCOCC1)NC(=O)[C@H](CC(=O)O)NC2=O` (relative stereo) [I-313, Ac-PL3-Asp-MorphNva-B5-Asp-3COOHF-Aib-Ala-Phe-Lys*3-PyrS2-3Thi-BztA-GlnR*3-Ala-NH2]: under setting [2], the IC50 was above 20 µM.
On the same count and under the same terms, the value for `CC(=O)N1CCC[C@]12CC=CCCCC1(CCCC=CCCCOC(=O)N3CC[C@@]4(C3)NC(=O)[C@H](CCCCNC(=O)CC[C@@H](C(=O)N[C@@H](C)C(N)=O)NC(=O)[C@H](Cc3csc5ccccc35)NC(=O)[C@H](Cc3ccsc3)NC4=O)NC(=O)[C@H](Cc3ccccc3)NC(=O)[C@H](C)NC(=O)[C@H](Cc3ccccc3)NC(=O)[C@H](Cc3cccc(C(=O)O)c3)NC(=O)[C@H](CC(=O)O)NC1=O)NC(=O)[C@H](CC(C)(C)C)NC(=O)[C@H](CC(=O)O)NC2=O` (relative stereo) [I-386, Ac-PL3-Asp-Npg-B5-Asp-3COOHF-Phe-Ala-Phe-Lys*3-PyrS2-3Thi-BztA-GlnR*3-Ala-NH2] was above 20 µM.
On to `CC(=O)N1CCC[C@]12CC=CCCCC1(CCCC=CCCCOC(=O)N3CC[C@@]4(C3)NC(=O)[C@H](CCCCNC(=O)CC[C@@H](C(=O)N[C@@H](C)C(N)=O)NC(=O)[C@H](Cc3csc5ccccc35)NC(=O)[C@H](Cc3ccsc3)NC4=O)NC(=O)[C@H](Cc3ccccc3)NC(=O)[C@H](C)NC(=O)C(C)(C)NC(=O)[C@H](Cc3cccc(C(=O)O)c3)NC(=O)[C@H](CC(=O)O)NC1=O)NC(=O)[C@H](C1CCCCC1)NC(=O)[C@H](CC(=O)O)NC2=O` (single isomer, unassigned) [I-253, Ac-PL3-Asp-Chg-B5-Asp-3COOHF-Aib-Ala-Phe-Lys*3-PyrS2-3Thi-BztA-GlnR*3-Ala-NH2], for which, under setting [1], the IC50 was at most 10 µM.
As for `CC(=O)N1CCC[C@]12CC=CCCCC1(CCCC=CCCCOC(=O)N3CC[C@@]4(C3)NC(=O)[C@H](CSCc3cccc(c3)CSC[C@@H](C(=O)N[C@@H](C)C(N)=O)NC(=O)[C@H](Cc3csc5ccccc35)NC(=O)[C@H](Cc3ccccc3C(F)(F)F)NC4=O)NC(=O)[C@H](Cc3ccccc3)NC(=O)[C@H](C)NC(=O)C(C)(C)NC(=O)[C@H](Cc3cccc(C(=O)O)c3)NC(=O)[C@H](CC(=O)O)NC1=O)NC(=O)[C@H](CC(C)(C)C)NC(=O)[C@H](CC(=O)O)NC2=O` (stereo partly drawn) [I-375, Ac-PL3-Asp-Npg-B5-Asp-3COOHF-Aib-Ala-Phe-[mXyl]Cys-PyrS2-2F3MeF-BztA-Cys-Ala-NH2], the IC50 under setting [2] was at most 10 µM.
Consider “Ac-PL3-Asp-Cha-B5-Asp-3COOHF-Ala-Ala-Phe-Lys*3-PyrS2-2ClF-BztA-GlnR*3-NH2 [I-1528]”, for which the IC50 under setting [1] was at most 10 µM.
On the same count and under the same terms, the value for “Ac-PL3-Asp-Cha-B5-Asp-3COOHF-CyLeu-Ala-Phe-Lys*3-PyrS2-3Thi-34ClF-GlnR*3-NH2 [I-1047]” was at most 10 µM.
